The values that follow are results of earlier work, collected in patent publication US4645756A, “[α,ω-bis(diphenylphosphino)hydrocarbon]bis[(thiosugar)gold] and bis[(selenosugar)gold] derivatives, pharmaceutical compositions and method of use” (priority 1985, dated 1987).

For the data set the following is noted: Struck et al. 1966; cited from earlier work.

For the molecule `c1ccc(P(CCP(c2ccccc2)c2ccccc2)c2ccccc2)cc1` [ethylenebis(diphenylphosphine)], the cytotoxic activity result is “cytotoxic activity”.
